These results are taken from patent publication US20160166576A1, “SUBSTITUTED AMIDOPYRAZOLE INHIBITORS OF INTERLEUKIN RECEPTOR-ASSOCIATED KINASES (IRAK-4)” (MERCK SHARP & DOHME CORP., priority 2013, published 2016).

The target of one data set is T1, IRAK4 (Homo sapiens, UniProt Q9NWZ3).
T1 construct: GST; purchased SignalChem
T1 sequence (Q9NWZ3 1-460): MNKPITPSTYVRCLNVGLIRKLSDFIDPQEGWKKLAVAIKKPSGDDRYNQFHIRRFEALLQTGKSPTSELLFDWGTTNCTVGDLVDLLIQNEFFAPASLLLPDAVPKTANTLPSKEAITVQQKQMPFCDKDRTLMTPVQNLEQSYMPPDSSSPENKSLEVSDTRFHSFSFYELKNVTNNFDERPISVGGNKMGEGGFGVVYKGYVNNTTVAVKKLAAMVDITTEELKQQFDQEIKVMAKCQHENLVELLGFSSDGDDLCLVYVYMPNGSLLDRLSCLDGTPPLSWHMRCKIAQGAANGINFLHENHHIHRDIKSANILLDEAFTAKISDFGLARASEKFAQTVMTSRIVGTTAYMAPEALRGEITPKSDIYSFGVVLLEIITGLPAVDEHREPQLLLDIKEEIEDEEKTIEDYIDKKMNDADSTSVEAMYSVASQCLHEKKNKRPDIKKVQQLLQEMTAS
The data set is described as follows: IRAK4 IMAP kinase activity assay (fluorescence polarization). It counts as biochemical. The settings on record: 1 nM GST tagged IRAK4, 100 μM ATP, 1 hour at 25° C. Here is the method: Determination of IRAK4 Kinase Activity
The kinase activity of IRAK4 is determined by its ability to catalyze the phosphorylation of a fluorescent polypeptide substrate. The extent of phosphorylation is measured using IMAP technology (Molecular Devices) where the phosphorylated fluorescent substrate binds to the large M(III)-based nanoparticles which reduces the rotational speed of the substrate and thus increases its fluorescent polarization (FP).
Procedure: A 20 μl reaction mixture contains 10 mM TriHC1, pH 7.2, 1 nM GST tagged IRAK4 (SignalChem), 100 nM fluorescent peptide substrate (RP7030, Molecular Devices), 100 μM ATP, 1 mM DTT, 2 mM MgCl2, and 0.01% Tween 20. The reaction is initiated by the addition of ATP. After incubation for 1 hour at 25° C., 60 μl of Progressive IMAP Reagent (Molecular Devices) is added to stop the reaction. Change in RP7030's FP is determined by a FP reader (EnVision Multilabel Reader, Perkin Elmer).

Data set [1] in a line: Rat pharmacokinetics after PO and SC dosing. In kind it is in vivo, female Lewis rats. To be noted: for Cmax: rat, fed female Lewis rats, plasma; for Cmax compared to that of Compound A: rats, at either 30 mpk SC dosing or 30 mpk PO dosing or both. Here is the method:
Pharmacokinetic Properties
Pharmacokinetic parameters were determined following PO and SC dosing at 30 mg/kg in fed female Lewis rats. Compounds were formulated for both PO and SC dosing in 50/50 (v/v) 50% captisol/50 mM citrate buffer (pH 4). Plasma samples obtained from dosed animals were prepared for analysis by means of a single step protein precipitation technique by adding 200 μL of acetonitrile to 50 μL aliquots of individual subject samples. Samples were mixed by vortex for homogeneity and then subjected to centrifugation at 3500 rpm for 10 min. The supernatant (200 μL) was collected and injected into the LC-MS/MS for analysis. Pharmacokinetic parameters were calculated using established non-compartmental methods.

The mark [2] stands for this setting: 30 mg/kg PO, read-out: Rat PK, 30 mpk PO, Cmax.
The mark [3] stands for this setting: 30 mg/kg SC, read-out: Rat PK, 30 mpk SC, Cmax.

Structures are written as SMILES. Read-outs that look alike come from different tables or passages of the source.

As usually defined, the IC50 is the point on the concentration scale where inhibition reaches its midpoint. As a reminder, the Cmax is the maximum level reached in the sampled fluid or tissue. On IRAK4, `Cc1ccc(-n2nc(N3CCN(C)CC3)cc2NC(=O)c2cnn3ccccc23)nc1` [Compound A, reference compound] had an IC50 of 2 nM. Further, the values for the peak concentration (Cmax) in data set [1] (setting [2]) and in data set [1] (setting [3]) were 1 µM and 3.3 µM, respectively.

`Cc1ccc(-n2nc(N3CCN(CC(N)=O)CC3)cc2NC(=O)c2cnn3cccnc23)nc1` [Compound 16, N-{3-[4-(2-amino-2-oxoethyl)piperazin-1-yl]-1-(5-methylpyridin-2-yl)-1H-pyrazol-5-yl}pyrazolo[1,5-a]pyrimidine-3-carboxamide] returned a concentration for half-maximal inhibition (IC50) against IRAK4 of 4 nM. Moreover, the Cmax was 4.3 µM in data set [1] (setting [2]) and 16.1 µM in data set [1] (setting [3]). The “Cmax compared to that of Compound A” value in data set [1] was “superior”.

As to `Cc1ccc(-n2nc(N3CCN([C@@H]4CCS(=O)(=O)C4)CC3)cc2NC(=O)c2cnn3cccnc23)nc1` [Compound 8, N-[3-{4-[(3R)-1,1-dioxidotetrahydrothiophen-3-yl]piperazin-1-yl}-1-(5-methylpyridin-2-yl)-1H-pyrazol-5-yl]pyrazolo[1,5-a]pyrimidine-3-carboxamide], on IRAK4, the midpoint of inhibition, the IC50, lay at 1 nM. Also, the highest concentration (Cmax) in data set [1] (setting [2]) came to 8.6 µM; in data set [1] (setting [3]), 1.5 µM. In data set [1], the “Cmax compared to that of Compound A” value is “superior”.

`Cc1ccc(-n2nc(N3CCN([C@H]4CCS(=O)(=O)C4)CC3)cc2NC(=O)c2cnn3cccnc23)nc1` [Compound 9, N-[3-{4-[(3S)-1,1-dioxidotetrahydrothiophen-3-yl]piperazin-1-yl}-1-(5-methylpyridin-2-yl)-1H-pyrazol-5-yl]pyrazolo[1,5-a]pyrimidine-3-carboxamide] registered a half-maximal inhibitory concentration (IC50) on IRAK4 of 2 nM. In addition, the results for the highest concentration (Cmax) in data set [1] (setting [2]) and in data set [1] (setting [3]) were 7.7 µM and 8.1 µM, respectively. In addition, the “Cmax compared to that of Compound A” value in data set [1] is reported as “superior”.
